Test results: US20210322412A1, “METHODS AND COMPOSITIONS FOR TREATING A CORONAVIRUS INFECTION” (priority 2020, published 2021)

Tests used:
[1] = Sorption behavior (dynamic vapour sorption isotherms); format: physicochemical
Protocol: Sorption isotherms were generated using an IGAsorp water sorption monitor from Hiden Isochema. Adsorption and desorption isotherms were obtained at 25° C. with 10% r.h. step intervals ranging from 10% r.h. to 90% r.h.
For BR salt form only: Sorption isotherms were registered on a DVS-1 water sorption monitor from Surface Measurement Systems.

[2] = target: human CCR5 receptors (Homo sapiens, UniProt P51681); test: CCR5 inhibitory activity; format: binding; settings: Receptor CCR5
Sequence of human CCR5 receptors (P51681 whole entry): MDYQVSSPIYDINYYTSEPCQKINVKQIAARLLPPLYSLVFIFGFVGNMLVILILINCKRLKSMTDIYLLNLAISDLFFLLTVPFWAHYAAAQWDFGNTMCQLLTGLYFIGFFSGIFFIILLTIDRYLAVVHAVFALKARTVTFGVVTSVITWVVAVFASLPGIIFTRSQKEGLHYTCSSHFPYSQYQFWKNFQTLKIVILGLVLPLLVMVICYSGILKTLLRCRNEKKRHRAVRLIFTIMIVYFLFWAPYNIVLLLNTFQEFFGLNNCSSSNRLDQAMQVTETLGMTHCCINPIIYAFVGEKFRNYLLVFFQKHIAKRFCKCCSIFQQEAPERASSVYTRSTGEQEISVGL
Protocol: (§1) The CCR2 and CCR5 inhibitory activity of (4-((3R,4R)-3-methoxytetrahydro-pyran-4-ylamino)piperidin-1-yl)(5-methyl-6-(((2R,6S)-6-(p-tolyl)tetrahydro-2H-pyran-2-yl)methylamino)pyrimidin-4-yl)methanone citrate was evaluated against human CCR2 receptors and human CCR5 receptors.

[3] = target: human CCR2 receptors (Homo sapiens, UniProt P41597); test: CCR2 inhibitory activity; format: binding; settings: Receptor CCR2
Sequence of human CCR2 receptors (P41597 whole entry): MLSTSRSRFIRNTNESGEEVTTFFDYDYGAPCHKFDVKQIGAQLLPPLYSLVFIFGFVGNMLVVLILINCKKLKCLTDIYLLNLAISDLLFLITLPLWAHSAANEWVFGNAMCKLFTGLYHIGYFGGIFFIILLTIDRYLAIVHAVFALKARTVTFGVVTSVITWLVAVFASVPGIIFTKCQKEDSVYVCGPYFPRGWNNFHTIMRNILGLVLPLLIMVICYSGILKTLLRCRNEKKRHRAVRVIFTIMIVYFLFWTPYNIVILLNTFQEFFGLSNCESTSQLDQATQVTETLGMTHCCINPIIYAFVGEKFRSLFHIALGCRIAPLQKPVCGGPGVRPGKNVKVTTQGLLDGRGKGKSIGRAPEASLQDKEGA
Protocol: as §1

CO[C@H]1COCC[C@H]1NC1CCN(C(=O)c2ncnc(NC[C@H]3CCC[C@@H](c4ccc(C)cc4)O3)c2C)CC1.O=C(O)CC(O)(CC(=O)O)C(=O)O [Compound 1, (4-((3R,4R)-3-Methoxytetrahydro-pyran-4-ylamino)piperidin-1-yl)(5-methyl-6-(((2R,6S)-6-(p-tolyl)tetrahydro-2H-pyran-2-yl)methylamino)pyrimidin-4-yl)methanone citrate]
state of the compound after the sorption experiment ([1]; after the sorption experiment): still remains as solid material
stability against relative humidity ([1]; relative humidity, 25° C.): up to 80%
uptake of water ([1]; sorption experiment, relative humidity up to 80%, uptake reversible): 2.6%
IC50 [2]: 88 nM
Ki [2]: 75 nM
IC50 [3]: 50 nM
Ki [3]: 4.2 nM
